Results published in patent publication US6080746A, “Methods and compositions for the prophylaxis and treatment of cytomegalovirus infections” (priority 1991, dated 2000).
Values after ≈ are worked out from the molar mass of the structure shown.

Legend:
cytomegalovirus = conditions: cited from earlier work; for treatment of cytomegalovirus retinitis: Rosecan et al. 1986 / reported
[1] = test system: human cytomegalovirus (strain AD 169); test: Inhibition of human cytomegalovirus in MRC5 cells by plaque reduction assay (reduction of CPE, MIC50; Table 1); type: cell-based; conditions: Human betaherpesvirus 5, MRC5, 0 h, read-out: Reduction (%) of CPE at Time of Harvest
Source text: (§1) In each case, drug treatment began 0 hr. postinfection.

[2] = test system: human diploid embryonic lung cells (MRC5); test: Drug cytotoxicity (gross morphology) in MRC5 cells (Table 1)
Source text: Also evaluated under the same conditions were prior art drugs Ara-A and ganciclovir (DHPG). In each case, drug treatment began 0 hr. postinfection.

[3] = test system: human cytomegalovirus (strain AD 169); test: CMV yield in MRC5 cells (Table 1); type: cell-based; conditions: virus control 5.5 (DHPG 5.3)
Source text: as §1

human CMV = test: Plaque reduction assay against human CMV (ED50); type: cell-based
HCMV = test: Virus yield-reduction assay, combination with papaverine on HCMV replication in MRC5 cells (Table 3); type: cell-based, human CMV; conditions: (±)-2'-CDG 0
Source text: The following results were obtained in testing mixtures of racemic 2'-CdG and papaverine under the same conditions:
Effect of Combination Treatment^a With Papaverine and
(±)-2'-CDG and on HCMV Replication in MRC5 Cells
(Virus Yield-Reduction Assay)
^a Drug treatment began immediately following the virus adsorption

## Nc1ncnc2c1ncn2[C@@H]1O[C@H](CO)[C@@H](O)[C@@H]1O [Ara-A, reference compound]
cytomegalovirus
  treatment of cytomegalovirus retinitis: unsuccessful
[1]
  inhibition at 0.32 µg/mL: 0%
  inhibition at 1 µg/mL: 0%
  inhibition at 3.2 µg/mL: 5%
  inhibition at 10 µg/mL: 90%
  inhibition at 32 µg/mL: > 95%
  inhibition at 100 µg/mL: 100%
[2]; 0.32 μg/ml
  Drug Cytotoxicity (gross morphology): 0
[2]; 1.0 μg/ml
  Drug Cytotoxicity (gross morphology): 0
[2]; 3.2 μg/ml
  Drug Cytotoxicity (gross morphology): 0
[2]; 10 μg/ml
  Drug Cytotoxicity (gross morphology): 0
[3]; 0.32 μg/ml
  CMV Yield: 5.2 log10 CCID50 /ml
[3]; 1.0 μg/ml
  CMV Yield: 4.9 log10 CCID50 /ml
[3]; 3.2 μg/ml
  CMV Yield: 4.7 log10 CCID50 /ml
[3]; 10 μg/ml
  CMV Yield: 3.4 log10 CCID50 /ml
[3]; 32 μg/ml
  CMV Yield: 0.6 log10 CCID50 /ml
[3]; 100 μg/ml
  CMV Yield: 0 log10 CCID50 /ml

## CCCCC(=O)OC[C@H]1O[C@@H](n2cnc3c(=O)[nH]c(N)nc32)C[C@@H]1O [D-2'-deoxyguanosine-5'-0-valerate]
Human CMV
  ED50: 0.09 µg/mL (≈ 0.256 µM)

## COc1ccc(Cc2nccc3cc(OC)c(OC)cc23)cc1OC [Papaverine, reference compound]
HCMV; papaverine (DHPG) 1.0 μM
  Reduction in CMV Yield: 0 Log10 PFU/ML
HCMV; papaverine (DHPG) 3.2 μM
  Reduction in CMV Yield: 0.2 Log10 PFU/ML
HCMV; papaverine (DHPG) 10.0 μM
  Reduction in CMV Yield: 0.6 Log10 PFU/ML
HCMV; papaverine (DHPG) 32.0 μM
  Reduction in CMV Yield: 1.4 Log10 PFU/ML

## Nc1nc2c(ncn2COCCO)c(=O)[nH]1 [acyclovir]
cytomegalovirus; CMV retinitis, reported
  activity against CMV retinitis: ineffective
cytomegalovirus
  treatment of cytomegalovirus retinitis: unsuccessful
cytomegalovirus; established systemic CMV infections, reported
  activity against established systemic CMV infections: ineffective

## alpha-interferon
cytomegalovirus
  treatment of cytomegalovirus retinitis: unsuccessful
